From PMC4980153 (Biochemical pharmacology, 2016)
“And” between values parts separate entries of the source, which are not always exact repeats. Equal values may be shown once. Where a name gives a salt, the structure may show the parent alone. Read-outs that look alike come from different tables or passages of the source.

Columns and labels:
[1] = molecular target: (e1-BB2) BB3* loss-of-affinity chimera (Homo sapiens, UniProt P32247, E111D/G112R/H107K/H294R/T106S); experiment: 125I-peptide #1 competition binding, CHOP cells; parameters: species or system mouse; settings: EC1 of BB3* replaced by EC1 of BB2, vs BB3*
Chain of (e1-BB2) BB3* loss-of-affinity chimera (P32247 whole entry T106S/H107K/E111D/G112R/H294R): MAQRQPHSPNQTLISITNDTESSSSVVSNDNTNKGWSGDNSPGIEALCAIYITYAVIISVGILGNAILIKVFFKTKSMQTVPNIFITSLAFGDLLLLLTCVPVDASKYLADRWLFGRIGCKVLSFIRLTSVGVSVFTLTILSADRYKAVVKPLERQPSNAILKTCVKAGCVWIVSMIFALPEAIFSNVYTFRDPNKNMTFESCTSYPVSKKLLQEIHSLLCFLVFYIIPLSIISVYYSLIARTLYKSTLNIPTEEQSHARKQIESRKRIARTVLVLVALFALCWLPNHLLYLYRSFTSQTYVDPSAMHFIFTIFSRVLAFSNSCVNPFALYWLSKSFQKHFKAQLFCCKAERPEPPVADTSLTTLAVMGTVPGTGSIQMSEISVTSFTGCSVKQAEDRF

[2] = molecular target: (e2-BB2) BB3* loss-of-affinity chimera (Homo sapiens, UniProt P32247, D193V/E201I/E215K/H294R/K196T/K210N/K211E/L213H/L219M/L220A/M198Q/N187D/N195D/P194K/Q214P/R192H/S205P/T190P/T204A/V188L/V208H/Y189H); experiment: 125I-peptide #1 competition binding, CHOP cells; parameters: species or system mouse; settings: EC2 of BB3* replaced by EC2 of BB2, vs BB3*
Chain of (e2-BB2) BB3* loss-of-affinity chimera (P32247 1-399 with the stated changes): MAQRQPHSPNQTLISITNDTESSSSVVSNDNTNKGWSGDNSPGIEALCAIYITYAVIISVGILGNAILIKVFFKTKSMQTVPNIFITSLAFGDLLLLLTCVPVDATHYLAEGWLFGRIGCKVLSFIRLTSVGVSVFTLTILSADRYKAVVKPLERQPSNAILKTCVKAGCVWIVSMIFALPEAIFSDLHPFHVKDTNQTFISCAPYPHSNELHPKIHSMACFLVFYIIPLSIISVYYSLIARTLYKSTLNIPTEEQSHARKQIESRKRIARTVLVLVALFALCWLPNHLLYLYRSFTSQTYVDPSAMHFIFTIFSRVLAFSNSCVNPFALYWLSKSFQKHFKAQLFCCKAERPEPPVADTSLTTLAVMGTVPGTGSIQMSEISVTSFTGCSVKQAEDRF

[3] = system: (e1-BB3) BB2 gain-of-affinity chimera; experiment: 125I-peptide #1 competition binding, CHOP cells; parameters: species or system human, mouse; settings: EC1 of BB2 replaced by EC1 of BB3, vs wild type BB2
[H107K] BB3* receptor = [H107K] BB3* receptor (Homo sapiens, UniProt P32247, H107K/H294R); experiment: 125I-peptide #1 competition binding, CHOP cells
Chain of [H107K] BB3* receptor (P32247 whole entry H107K/H294R): as the sequence (P32247 whole entry T106S/H107K/E111D/G112R/H294R) above, with S106T, D111E, R112G counted along it

[4] = molecular target: [H107K] wild type BB3 receptor (Homo sapiens, UniProt P32247, H107K); experiment: 125I-peptide #1 competition binding, CHOP cells
Chain of [H107K] wild type BB3 receptor (P32247 whole entry H107K): as the sequence (P32247 whole entry T106S/H107K/E111D/G112R/H294R) above, with S106T, D111E, R112G, R294H counted along it

[H107D] BB3* receptor = [H107D] BB3* receptor (Homo sapiens, UniProt P32247, H107D/H294R); experiment: 125I-peptide #1 competition binding, CHOP cells
Chain of [H107D] BB3* receptor (P32247 whole entry H107D/H294R): as the sequence (P32247 whole entry T106S/H107K/E111D/G112R/H294R) above, with S106T, K107D, D111E, R112G counted along it

[5] = molecular target: [H107F] wild type BB3 receptor (Homo sapiens, UniProt P32247, H107F); experiment: 125I-peptide #1 competition binding, CHOP cells
Chain of [H107F] wild type BB3 receptor (P32247 whole entry H107F): as the sequence (P32247 whole entry T106S/H107K/E111D/G112R/H294R) above, with S106T, K107F, D111E, R112G, R294H counted along it

[6] = molecular target: [H107Y] wild type BB3 receptor (Homo sapiens, UniProt P32247, H107Y); experiment: 125I-peptide #1 competition binding, CHOP cells
Chain of [H107Y] wild type BB3 receptor (P32247 whole entry H107Y): as the sequence (P32247 whole entry T106S/H107K/E111D/G112R/H294R) above, with S106T, K107Y, D111E, R112G, R294H counted along it

[7] = molecular target: [H107K, G112R] BB3* receptor (Homo sapiens, UniProt P32247, G112R/H107K/H294R); experiment: 125I-peptide #1 competition binding, CHOP cells
Chain of [H107K, G112R] BB3* receptor (P32247 whole entry H107K/G112R/H294R): as the sequence (P32247 whole entry T106S/H107K/E111D/G112R/H294R) above, with S106T, D111E counted along it

[8] = molecular target: [H107K, G112R] wild type BB3 receptor (Homo sapiens, UniProt P32247, G112R/H107K); experiment: 125I-peptide #1 competition binding, CHOP cells
Chain of [H107K, G112R] wild type BB3 receptor (P32247 whole entry H107K/G112R): as the sequence (P32247 whole entry T106S/H107K/E111D/G112R/H294R) above, with S106T, D111E, R294H counted along it

[L123I] BB3* receptor = [L123I] BB3* receptor (Homo sapiens, UniProt P32247, H294R/L123I); experiment: 125I-peptide #1 competition binding, CHOP cells
Chain of [L123I] BB3* receptor (P32247 whole entry L123I/H294R): as the sequence (P32247 whole entry T106S/H107K/E111D/G112R/H294R) above, with S106T, K107H, D111E, R112G, L123I counted along it

[9] = molecular target: [V101A] wild type BB3 receptor (Homo sapiens, UniProt P32247, V101A); experiment: 125I-peptide #1 competition binding, CHOP cells
Chain of [V101A] wild type BB3 receptor (P32247 whole entry V101A): as the sequence (P32247 whole entry T106S/H107K/E111D/G112R/H294R) above, with V101A, S106T, K107H, D111E, R112G, R294H counted along it

[S124P] BB3* receptor = [S124P] BB3* receptor (Homo sapiens, UniProt P32247, H294R/S124P); experiment: 125I-peptide #1 competition binding, CHOP cells
Chain of [S124P] BB3* receptor (P32247 whole entry S124P/H294R): as the sequence (P32247 whole entry T106S/H107K/E111D/G112R/H294R) above, with S106T, K107H, D111E, R112G, S124P counted along it

[R127K] BB3* receptor = [R127K] BB3* receptor (Homo sapiens, UniProt P32247, H294R/R127K); experiment: 125I-peptide #1 competition binding, CHOP cells
Chain of [R127K] BB3* receptor (P32247 whole entry R127K/H294R): as the sequence (P32247 whole entry T106S/H107K/E111D/G112R/H294R) above, with S106T, K107H, D111E, R112G, R127K counted along it

[10] = molecular target: [R127K] wild type BB3 receptor (Homo sapiens, UniProt P32247, R127K); experiment: 125I-peptide #1 competition binding, CHOP cells
Chain of [R127K] wild type BB3 receptor (P32247 whole entry R127K): as the sequence (P32247 whole entry T106S/H107K/E111D/G112R/H294R) above, with S106T, K107H, D111E, R112G, R127K, R294H counted along it

[R127N] BB3* receptor = [R127N] BB3* receptor (Homo sapiens, UniProt P32247, H294R/R127N); experiment: 125I-peptide #1 competition binding, CHOP cells
Chain of [R127N] BB3* receptor (P32247 whole entry R127N/H294R): as the sequence (P32247 whole entry T106S/H107K/E111D/G112R/H294R) above, with S106T, K107H, D111E, R112G, R127N counted along it

[11] = molecular target: [R127N] wild type BB3 receptor (Homo sapiens, UniProt P32247, R127N); experiment: 125I-peptide #1 competition binding, CHOP cells
Chain of [R127N] wild type BB3 receptor (P32247 whole entry R127N): as the sequence (P32247 whole entry T106S/H107K/E111D/G112R/H294R) above, with S106T, K107H, D111E, R112G, R127N, R294H counted along it

[R127H] BB3* receptor = [R127H] BB3* receptor (Homo sapiens, UniProt P32247, H294R/R127H); experiment: 125I-peptide #1 competition binding, CHOP cells
Chain of [R127H] BB3* receptor (P32247 whole entry R127H/H294R): as the sequence (P32247 whole entry T106S/H107K/E111D/G112R/H294R) above, with S106T, K107H, D111E, R112G, R127H counted along it

[12] = molecular target: [R127H] wild type BB3 receptor (Homo sapiens, UniProt P32247, R127H); experiment: 125I-peptide #1 competition binding, CHOP cells
Chain of [R127H] wild type BB3 receptor (P32247 whole entry R127H): as the sequence (P32247 whole entry T106S/H107K/E111D/G112R/H294R) above, with S106T, K107H, D111E, R112G, R127H, R294H counted along it

[13] = molecular target: BB3 and BB3* receptors and their mutants (Homo sapiens, UniProt P32247, H294R/R127H); settings: [R127H], background not stated (discussion)
Chain of BB3 and BB3* receptors and their mutants (Homo sapiens, UniProt P32247, H294R/R127H) (P32247 whole entry R127H/H294R): as the sequence (P32247 whole entry T106S/H107K/E111D/G112R/H294R) above, with S106T, K107H, D111E, R112G, R127H counted along it

[14] = molecular target: BB3 and BB3* receptors and their mutants (Homo sapiens, UniProt P32247, H294R/R127K); settings: [R127K], background not stated (discussion)
Chain of BB3 and BB3* receptors and their mutants (Homo sapiens, UniProt P32247, H294R/R127K) (P32247 whole entry R127K/H294R): as the sequence (P32247 whole entry T106S/H107K/E111D/G112R/H294R) above, with S106T, K107H, D111E, R112G, R127K counted along it

[15] = system: BB3 and BB3* receptors and their mutants

`CC(C)C[C@H](NC(=O)C[C@H](O)[C@H](CC1CCCCC1)NC(=O)[C@H](Cc1c[nH]cn1)NC(=O)[C@H](Cc1ccccc1)NC(=O)OC(C)(C)C)C(=O)NCc1cccc([N+](C)(C)C)c1` [Bantag-1, Boc-Phe-His-4-amino-5-cyclohexyl-2,4,5-trideoxypentonyl-Leu- (3-dimethylamino) benzylamide N-methylammonium trifluoroacetate] was tested, and the decrease in affinity [1] was 377 fold and > 377 fold and > 400 fold, the decrease in affinity [2] was 23 fold and the increase in affinity [3] was 5 fold. For the same compound, the decrease in affinity ([H107K] BB3* receptor) was 54 fold, the decrease in affinity [4] was 35 fold and the decrease in affinity ([H107D] BB3* receptor) was > 192 fold. It also gave a decrease in affinity [5] of 4 fold, a decrease in affinity [6] of 13 fold and a decrease in affinity [7] of 250 fold. It also gave a decrease in affinity [8] of 68 fold, a decrease in affinity ([L123I] BB3* receptor) of 4 fold and a decrease in affinity [9] of 179 fold. The decrease in affinity ([S124P] BB3* receptor) was 54 fold, the decrease in affinity ([R127K] BB3* receptor) was 45 fold and the decrease in affinity [10] was > 526 fold. It also gave a decrease in affinity ([R127N] BB3* receptor) of 78 fold, a decrease in affinity [11] of 12 fold and a decrease in affinity ([R127H] BB3* receptor) of 192 fold. For the same compound, the decrease in affinity [12] was 175 fold, the decrease in affinity [13] was > 192 fold and the decrease in affinity [14] was 45 fold. The decrease in affinity ([15]; E111D or G112R BB3 receptor mutants) was 1 to 2.5 fold, the loss in affinity ([15]; [G112R] in wild type and BB3* receptor) was 2 fold and 2–3 fold and the decrease in affinity ([15]; [H107F] and [H107Y] in BB3*) was 7–16 fold. For the same compound, the decrease in affinity ([15]; [H107K, E111D, G112R] in wild type and BB3*) was 500 fold and > 500 fold, the decrease in affinity ([15]; [H107K], BB3 and BB3* not separated) was 60 fold and 35–54 fold and 50 fold and the decrease in affinity ([15]; [H107N] in either BB3 or BB3*) was > 58 fold. The decrease in affinity ([15]; [H107W], background not separated) was > 190 times, the decrease in affinity ([15]; [H107Y] and [H107F] in either BB3 or BB3*) was 4–16 fold and 5–17 fold and the decrease in affinity ([15]; [L123I, R127Q] in wild type and BB3*) was > 2,000 fold. The decrease in affinity ([15]; [R127E] in wild type and BB3*) was 188 fold and > 200 fold, the decrease in affinity ([15]; [R127Q], [L123I] and [S124P] in wild type BB3) was 233–536 fold and the decrease in affinity ([15]; [R127Q], background not separated) was 400 fold and > 390 fold and > 400 fold. The Ki ([15]; read-out: Ki (range given), [G112R] in wild type and BB3* receptor) was 11.6 to 16 nM and the decrease in affinity ([15]; single EC1 amino acid substitutions alone) was 1.4–54 fold.
